Measurements published in US20220395477A1, “COMPOSITIONS AND METHODS FOR PREVENTING AND TREATING RESPIRATORY SYNCYTIAL VIRUS INFECTION” (priority 2019, published 2022).

System: RSV Line 19 (rA2-KL19F)
Test: RFP (mKate2)-expressing RSV infection of A549 cells pretreated with SCFAs 24 hours before infection (RFP/DAPI)
Type: cell-based, Human Respiratory Syncytial Virus
Details: single SCFA 100 to 300 μM, 3 MOI, imaged after 48 hours
Experimental: Images taken after 48 Hrs.
Cells were infected at 3 MOI of RSV Line 19 (rA2-KL19F) expressing a red fluorescent marker, mKate2, as well as the F protein from the mucogenic clinical strain, and media was replaced with the appropriate SCFAs that was previously used in cultured. After 48 hours, the cells were stained with NucBlue (life technologies) and imaged using a Keyence fluorescence microscope (FIGS. 4A-4B).

Structure (SMILES)	expression of RFP-MKate (RFP/DAPI)
CC(=O)O [acetate]	reduces the expression of RFP-MKate
CCC(=O)O [propionate]	reduces the expression of RFP-MKate
